Series [1] deals with S. aureus/MRSA. The series can be described thus: MIC by broth microdilution. The series is classed as cell-based. The note with it: 35 °C, 24 h, duplicates. How it is done: The minimum inhibitory concentrations (MIC) of cationic peptides were determined using the broth microdilution method in a 96-well microtiter plate (Cellstar, Greiner Bio-One, Austria). The inoculum was prepared by suspending overnight grown isolated colonies selected from a Tryptic Soy Agar (TSA) plate in water for injection. The concentration of the inoculum suspension was adjusted to match that of the 0.5 McFarland’s standard (10^8 CFU/mL) and further diluted 150-fold by adding 50 μL of suspension into 7.5 mL of Mueller−Hinton broth to obtain an inoculum of 10^5 to 10^6 CFU/mL. Lyophilized peptide obtained from the manufacturer was dissolved in water and adjusted to a final concentration of 0.5 to 256 μg/mL in twofold serial dilutions. A total of 100 μL of the solution was then mixed with an equal volume of bacterial inoculum prepared before in 96-well plates. The plates were then incubated at 35 °C for 24 h, and the optical density at 600 nm (OD600) was determined using a TECAN microplate reader.

Series [2] deals with WERI-Rb1 cells. The series can be described thus: Trypan blue viability assay. Format: cell-based. The note with it: WERI-Rb1, 48 h treatment. How it is done:
WERI-Rb1 cells (1 × 10^5) were treated with increasing concentrations (7.7 µM, 36.25 µM, 72.5 µM, 145 µM, or 290 µM) of a panel of six HC peptides (HC1, HC2, HC3, HC4, HC5, and HC6). Nocodazole (10 µM) treatment was used as a positive control for the study, with untreated cells as the negative control. All treatments were performed at 37 °C in a 90% humidified incubator with 5% CO2 for 48 h. After 48 h post-treatment, cells were stained with 0.4% trypan blue (cat#15250061, Invitrogen, Waltham, MA, USA) and the number of live and dead cells for each time point was estimated using the hemocytometer cell counting protocol. The percentage of cell viability was calculated by dividing the live cell count by the total cell count.

The subject of series [3] is ARPE-19 cells. The series can be described thus: Western blot of apoptotic markers in cytoplasmic and mitochondrial fractions. Format: cell-based, Human. The note with it: ARPE-19, 48-h exposure, cytoplasmic and mitochondrial fractions (Figure 5c).
Series [4] deals with WERI-Rb1 cells. Kind of series: MTS cell viability assay. Format: cell-based. The method, then: (§1) WERI-Rb1 and ARPE-19 cells were seeded at a concentration of 2 × 10^3 cells/well in a 96-well plate and cultured at 37 °C in a humidified 5% CO2 incubator. After seeding the cells, they were treated with various concentrations of CAPs and further incubated for 48 h at 37 °C. Cell viability was assessed after 48 h using the Cell-Titer 96® Aqueous One Solution Cell Proliferation Assay (cat#G3582, Promega, WI, USA) according to the manufacturer’s protocol and described earlier. Briefly, 10 µL of MTS reagent was added to each well and the cells were incubated at 37 °C for 2 h before the experiment end time points. Percentage cell viability was calculated from the absorbance measured at 490 nm using a TECAN microplate reader.
Background: Tetrazolium dyes change colour on reduction, which living cells bring about.

Series [5] has as its system WERI-Rb1 cells. Kind of series: Western blot of DNA damage markers. The series is classed as cell-based. The note with it: IC50 dose; for γH2A.X phosphorylation at Ser139 (immunoblot): 48 h, Western blot (Figure 4a). The method, then:
WERI-Rb1 cells were seeded in 6-well cell culture plates (1 × 10^6 cells/well), incubated at 37 °C in a humidified 5% CO2 incubator, and were treated with IC50 doses of topotecan, HC3. or HC5. After 48 h, cells were lysed in RIPA buffer (20 mM Tris pH 8.0, 0.1% SDS, 150 mM NaCl, 0.08% sodium deoxycholate, 1% NP40 supplemented with one tablet of protease inhibitor and phosphatase inhibitor (Roche). 20 µg of total protein was loaded per lane and separated by SDS-PAGE. The separated proteins on the gel were transferred to PVDF membrane and were probed for antibodies against γH2A.X (1:1000, cat#2595, Cell Signaling Technology, Danvers, MA, USA), p-γH2A.X (Ser139) (1:1000, cat#2577, Cell Signaling Technology, Danvers, MA, USA), p-BCL2(Ser70) (1:1000, cat#2827, Cell Signaling Technology, Danvers, MA, USA), BCL2 (1:1000, cat#2872, Cell Signaling Technology, Danvers, MA, USA), Bax (1:1000, cat#2772, Cell Signaling Technology, Danvers, MA, USA), p-ATM(Ser1981) (1:1000, cat#5883, Cell Signaling Technology, Danvers, MA, USA), ATM (1:1000, cat#2873, Cell Signaling Technology, Danvers, MA, USA), p-Chk2(Thr68) (1:1000, cat#2661, Cell Signaling Technology, Danvers, MA, USA), Chk2 ([…], cat#2662, Cell Signaling Technology, Danvers, MA, USA), p-p53(Ser15) (1:1000, cat#9284, Cell Signaling Technology, Danvers, MA, USA), p-p53(Ser46) (1:1000, cat#2521, Cell Signaling Technology, Danvers, MA, USA), p53 (1:1000, cat#2524, Cell Signaling Technology, Danvers, MA, USA), Cleaved caspase 9 (1:1000, cat#9505, Cell Signaling Technology, Danvers, MA, USA), Cleaved caspase 3 (1:1000, cat#9661, Cell Signaling Technology, Danvers, MA, USA), Cleaved PARP (1:1000, cat#5625, Cell Signaling Technology, Danvers, MA, USA), and GAPDH (1:2000, cat#ab9485, Abcam, Cambridge, UK). Proteins of interest were detected with HRP-conjugated sheep anti-mouse (1:5000, cat#7076, Cell Signaling Technology, Danvers, MA, USA) or anti-rabbit IgG antibody (1:5000, cat#7074, Cell Signaling Technology, Danvers, MA, USA) and visualized with the Clarity ECL Western blotting substrate (Bio-Rad, Hercules, CA, USA) according to the provided protocol.
Background: In western blotting, separated proteins are transferred to a membrane and probed.

Series [6] deals with ARPE-19 cells. The series can be described thus: MTS cell viability assay. Format: cell-based, Human. Particulars: ARPE-19, MTS, 48 h (Figure 2c). How it is done: as §1
In series [7] the test system is WERI-Rb1 tumor spheroids. The series can be described thus: Tumor spheroid area by high content imaging. The series is classed as cell-based. Particulars: 7-day-old WERI-Rb1 spheroids, IC50 dose, 48 h, n = 9 per condition. The method, then:
Spheroids were developed using the hanging drop protocol on low attachment U-bottom 96-well plate. The single cell suspension of 5 × 10^2 WERI-Rb1 cells in 100 µL medium was loaded in each well of a 96-well plate. The cells were cultured at 37 °C in a 90% humidified incubator with 5% CO2 for 7 days for the generation of tight and regular tumor spheroids. Seven-day-old spheroids (n = 9 per condition) were treated with 100 μL of freshly prepared medium containing an IC50 dose of topotecan (Figure S1), HC3, or HC5. The cultures were then incubated for 48 h prior to high content analysis (HCA) and immunofluorescence (IF) assays.
WERI-Rb1 cells were stained with orange plasma membrane stain as per the manufacturer’s protocol (Cell Mask Orange Plasma membrane stain; cat#C10045, Invitrogen, Waltham, MA, USA) prior to the development of spheroids. The stained WERI-Rb1 cells were used for spheroid formation using the hanging drop protocol on a low attachment U-bottom 96-well plate. […] The images were acquired using the automated high-content imaging system, IN Cell Analyzer 6000 (GE Healthcare, Singapore), equipped with a laser-based confocal platform having a 2× objective. The automatically captured single well imaging of spheroids and a Z stack of 11 images were separated by 50 µm total 500 µm depth for spheroids, using maximum intensity projection (MIP) acquisition and single-channel filter at 567 nm. To reduce data storage and image analysis time, we analyzed 2D projection images of tumor spheroids for multiple treatment conditions. Spheroid area and shape were automatically quantified by HCA using the IN-Cell 6000 software (GE Healthcare, Singapore). The mean area (µm^2) of each spheroid was calculated to elucidate the drug/peptide response.

≈ marks a conversion by molar mass, not a printed value. Structures can show the parent of a compound that is named as a salt. Where two headings read alike, the source gives them in different places. Where a SMILES comes first, the peptide text is derived from it. [ ]: non-standard residue; d: D form.

`CCCCCCCCCC(=O)N[C@@H](Cc1c[nH]c2ccccc12)C(=O)N[C@H](CC(N)=O)C(=O)N[C@@H](CC(=O)O)C(=O)N[C@@H]1C(=O)NCC(=O)N[C@@H](CCCN)C(=O)N[C@@H](CC(=O)O)C(=O)N[C@H](C)C(=O)N[C@@H](CC(=O)O)C(=O)NCC(=O)N[C@H](CO)C(=O)N[C@@H]([C@H](C)CC(=O)O)C(=O)N[C@@H](CC(=O)c2ccccc2N)C(=O)O[C@@H]1C` [Daptomycin]: the Minimum inhibitory concentration was 0.31 µM (≈ 0.502 µg/mL) in series [1] (strain MRSA 9808R, Mueller-Hinton broth); 0.31 µM (≈ 0.502 µg/mL) in series [1] (strain MRSA 21595, Mueller-Hinton broth); 0.31 µM (≈ 0.502 µg/mL) in series [1] (strain MRSA 42412, Mueller-Hinton broth); 0.31 µM (≈ 0.502 µg/mL) in series [1] (strain MRSA 43300, Mueller-Hinton broth); 0.31 µM (≈ 0.502 µg/mL) in series [1] (strain MRSA 68004, Mueller-Hinton broth); 0.62 µM (≈ 1 µg/mL) in series [1] (strain MRSA 700699, Mueller-Hinton broth). For the same compound, the Minimum inhibitory concentration in series [1] (strain MRSA +B32:L426506, Mueller-Hinton broth) stood at 0.31 µM (≈ 0.502 µg/mL); in series [1] (strain MRSA BAA38, Mueller-Hinton broth), 4.94 µM (≈ 8.01 µg/mL); in series [1] (strain MRSA DB57964/04, Mueller-Hinton broth), 0.31 µM (≈ 0.502 µg/mL); in series [1] (strain S. aureus 4299, Mueller-Hinton broth), 2.47 µM (≈ 4 µg/mL); in series [1] (strain S. aureus 4400R, Mueller-Hinton broth) it was 0.31 µM (≈ 0.502 µg/mL); in series [1] (strain S. aureus 4583R, Mueller-Hinton broth) it was 0.31 µM (≈ 0.502 µg/mL). In addition, the Minimum inhibitory concentration worked out at 0.15 µM (≈ 0.243 µg/mL) in series [1] (strain S. aureus 6538, Mueller-Hinton broth); 0.15 µM (≈ 0.243 µg/mL) in series [1] (strain S. aureus 29213, Mueller-Hinton broth); 0.31 µM (≈ 0.502 µg/mL) in series [1] (strain S. aureus 29737, Mueller-Hinton broth).
Regarding `N=C(N)NCCC[C@@H](NC(=O)[C@H](CCCCN)NC(=O)[C@@H](CCCNC(=N)N)NC(=O)[C@H](CCCCN)NC(=O)[C@@H](CCCNC(=N)N)NC(=O)[C@H](CCCCN)NC(=O)[C@@H](CCCNC(=N)N)NC(=O)[C@H](CCCCN)NC(=O)[C@@H](CCCNC(=N)N)NC(=O)[C@H](CCCCN)NC(=O)[C@@H](CCCNC(=N)N)NC(=O)[C@@H](N)CCCCN)C(=O)O` [HC3] (H-K[dR]K[dR]K[dR]K[dR]K[dR]K[dR]-OH; N-terminus and C-terminus assumed), the “cell death at a high dose” value in series [2] (high dose (dose not specified)) is 60%. In addition, in series [2] (low dose (dose not specified)), the “cell death at a low dose” value is on record as 40%. For the same compound, the “apoptotic events in ARPE-19 cells (Bax, cytochrome c)” value in series [3] was “did not trigger any apoptotic events”. Further, in series [4] (WERI-Rb1 cells, 48 h, dose used for spheroid treatment), the IC50 was found to be 77.2 µL/mL. For the same compound, in series [5] (48-h treatment, Western blot (Figure 4b)), the “phosphorylation of ATM and CHK2 (immunoblot)” value is “induced phosphorylation of ATM (ataxia-telangiectasia mutated) at Ser1981 and CHK2 at Thr68”. In addition, the “γH2A.X phosphorylation at Ser139 (immunoblot)” value in series [5] is given as “did not show any activation of γH2A.X(Ser139)”. In addition, in series [6], the “cytotoxic effect on non-malignant ARPE-19 cells” value is reported as “did not display any cytotoxic effect”. Also, the “effect on Rb spheroid size” value in series [7] was “effectively shrunk and decreased the Rb spheroid size”.
`COc1cccc2c1C(=O)c1c(O)c3c(c(O)c1C2=O)C[C@@](O)(C(=O)CO)C[C@@H]3O[C@H]1C[C@H](N)[C@H](O)[C@H](C)O1` [doxorubicin]: the IC50 in series [4] (WERI-Rb1, MTS, 48 h exposure, (Figure S4), read-out: IC50) came out at 2.5 µM.
Regarding `CC[C@@]1(O)C(=O)OCc2c1cc1n(c2=O)Cc2cc3c(CN(C)C)c(O)ccc3nc2-1` [topotecan, Topotecan hydrochloride hydrate], in series [3], the “apoptotic events in ARPE-19 cells (Bax, cytochrome c)” value is on record as “induced Bax expression in the mitochondrial fraction of ARPE-19”. Moreover, the IC50 in series [4] (WERI-Rb1, MTS, 48 h exposure, 5 nM to 50 nM (Figure S3), read-out: IC50) is 0.01 µM. Also, the “γH2A.X phosphorylation at Ser139 (immunoblot)” value in series [5] was “induction of γH2A.X phosphorylation at Ser139”. For the same compound, the “effect on Rb spheroid size” value in series [7] is “disrupted Rb spheroids”.

(Values after publication PMC9694048 (Pharmaceutics, 2022).)
